{
  "source": "patent US9522917B2",
  "about": "“Bruton's tyrosine kinase inhibitors for hematopoietic mobilization” (Acerta Pharma B.V., priority 2012, dated 2016)",
  "key": {"[1]": {"system": "Human CD34+ hematopoietic progenitor cells", "test": "In vitro Transwell migration of human CD34+ cells towards an SDF-1 gradient", "type": "cell-based", "procedure": "Human CD34+ hematopoietic progenitor cells were isolated from G-CSF mobilized peripheral blood and incubated with varying concentrations (0.1 μM, 1.0 μM and 10 μM) of the pyrimidine-based BTK inhibitor 1-[(3R)-3-[4-amino-3-(4-phenoxyphenyl)pyrazolo[3,4-d]pyrimidin-1-yl]piperidin-1-yl]prop-2-en-1-one for one hour at 37° C., 5% CO2 in serum free media (0.5% bovine serum albumin in RPMI media). Cells were then transferred to the upper chamber of a Transwell migration plate (5.0 um pore size, Costar Inc.). The lower chamber contained only serum-free media with 100 ng/ml SDF-1. Cells were incubated for five hours at 37° C., 5% CO2 to allow for cell migration from the upper chamber to the lower chamber. Cells that migrated into the lower chamber were counted using a hemocytometer."}, "[2]": {"system": "stem cell migration", "conditions": "cited from earlier work"}},
  "data": [
    {"compound": "C=CC(=O)N1CCC[C@@H](n2nc(-c3ccc(Oc4ccccc4)cc3)c3c(N)ncnc32)C1", "note": "[Btk inhibitor, 1-[(3R)-3-[4-amino-3-(4-phenoxyphenyl)pyrazolo[3,4-d]pyrimidin-1-yl]piperidin-1-yl]prop-2-en-1-one]", "values": [
      {"measurement": "inhibition of stem cell migration", "setting": "[1]; 0.1 μM, 1.0 μM and 10 μM, one hour preincubation, five hours migration to 100 ng/ml SDF-1, FIG. 1", "value": "inhibition of stem cell migration was seen at all tested concentrations"},
      {"measurement": "activity at lower concentration than reported for plerixafor", "setting": "[1]; versus plerixafor (50 μM) in similar assays", "value": 500, "unit": "fold"}
    ]},
    {"compound": "c1cc(CN2CCCNCCNCCCNCC2)ccc1CN1CCCNCCNCCCNCC1", "note": "[plerixafor]", "values": [
      {"measurement": "concentration reported for activity in similar assays", "setting": "[2]", "value": 50, "unit": "µM"}
    ]}
  ]
}
